# Reference: ChEMBL document CHEMBL5137040, “Identification of non-ATP-competitive α-carboline inhibitors of the anaplastic lymphoma kinase” (Eur J Med Chem, 2022)
# Tested on: BaF3
# Assay: cells
# Details: Mus musculus, BaF3, 72 h
row,Compound,IC50 [nM]
1,CN1CCN(c2ccc(-c3ccc4[nH]c5nccc(/C=C/c6ccccc6F)c5c4c3)cc2)CC1,5100
2,CN1CCN(c2ccc(-c3ccc4[nH]c5nccc(/C=C/c6ccccc6)c5c4c3)cc2)CC1,1100
3,CN1CCN(c2ccc(-c3ccc4[nH]c5nccc(-c6ccc(-c7ccccc7)cc6)c5c4c3)cc2)CC1,> 25000
4,CN1CCN(c2ccc(-c3ccc4[nH]c5nccc(/C=C/c6cccc(F)c6)c5c4c3)cc2)CC1,9500
5,CN1CCN(c2ccc(-c3ccc4[nH]c5nccc(-c6cccc(-c7ccccc7)c6)c5c4c3)cc2)CC1,2700
6,CN1CCN(c2ccc(-c3ccc4[nH]c5nccc(C#Cc6ccccc6)c5c4c3)cc2)CC1,4400

# Continued, values first:
row,IC50 [nM],Compound
1,> 25000,Cc1cc(OCc2ccc(-c3ccnc4[nH]c5ccc(-c6ccc(N7CCN(C)CC7)cc6)cc5c34)cc2)ccc1Cl
2,1700,CN1CCN(c2ccc(-c3ccc4[nH]c5nccc(/C=C/c6ccccc6C(F)(F)F)c5c4c3)cc2)CC1
3,800,COc1cc(-c2ccnc3[nH]c4ccc(-c5ccc(N6CCN(C)CC6)cc5)cc4c23)c(OC)cc1Cc1ccccc1
4,4100,COc1ccc(/C=C/c2ccnc3[nH]c4ccc(-c5ccc(N6CCN(C)CC6)cc5)cc4c23)cc1
5,3300,CN1CCN(c2ccc(-c3ccc4[nH]c5nccc(N6CCC(Cc7ccccc7)CC6)c5c4c3)cc2)CC1
6,1000,CN1CCN(c2ccc(-c3ccc4[nH]c5nccc(-c6ccc(-c7cccc8ccccc78)cc6)c5c4c3)cc2)CC1

# Tested on: BaF3
# Assay: cells
# Details: Mus musculus, BaF3, 72 h
# Remark: another data set of the same source
row,Compound,IC50 [nM]
1,CN1CCN(c2ccc(-c3ccc4[nH]c5nccc(/C=C/c6ccccc6F)c5c4c3)cc2)CC1,1600
2,CN1CCN(c2ccc(-c3ccc4[nH]c5nccc(/C=C/c6ccccc6)c5c4c3)cc2)CC1,1500
3,CN1CCN(c2ccc(-c3ccc4[nH]c5nccc(-c6ccc(-c7ccccc7)cc6)c5c4c3)cc2)CC1,2800
4,CN1CCN(c2ccc(-c3ccc4[nH]c5nccc(/C=C/c6cccc(F)c6)c5c4c3)cc2)CC1,1800
5,CN1CCN(c2ccc(-c3ccc4[nH]c5nccc(-c6cccc(-c7ccccc7)c6)c5c4c3)cc2)CC1,1900
6,CN1CCN(c2ccc(-c3ccc4[nH]c5nccc(C#Cc6ccccc6)c5c4c3)cc2)CC1,2700

# Next, values leading:
row,IC50 [nM],Compound
1,> 25000,Cc1cc(OCc2ccc(-c3ccnc4[nH]c5ccc(-c6ccc(N7CCN(C)CC7)cc6)cc5c34)cc2)ccc1Cl
2,900,CN1CCN(c2ccc(-c3ccc4[nH]c5nccc(/C=C/c6ccccc6C(F)(F)F)c5c4c3)cc2)CC1
3,500,COc1cc(-c2ccnc3[nH]c4ccc(-c5ccc(N6CCN(C)CC6)cc5)cc4c23)c(OC)cc1Cc1ccccc1
4,1600,COc1ccc(/C=C/c2ccnc3[nH]c4ccc(-c5ccc(N6CCN(C)CC6)cc5)cc4c23)cc1
5,600,CN1CCN(c2ccc(-c3ccc4[nH]c5nccc(N6CCC(Cc7ccccc7)CC6)c5c4c3)cc2)CC1
6,500,CN1CCN(c2ccc(-c3ccc4[nH]c5nccc(-c6ccc(-c7cccc8ccccc78)cc6)c5c4c3)cc2)CC1

# Tested on: BaF3
# Assay: cells
# Details: Mus musculus, BaF3, 72 h
# Remark: another data set of the same source
row,Compound,IC50 [nM]
1,CN1CCN(c2ccc(-c3ccc4[nH]c5nccc(/C=C/c6ccccc6F)c5c4c3)cc2)CC1,1900
2,CN1CCN(c2ccc(-c3ccc4[nH]c5nccc(/C=C/c6ccccc6)c5c4c3)cc2)CC1,1600
3,CN1CCN(c2ccc(-c3ccc4[nH]c5nccc(-c6ccc(-c7ccccc7)cc6)c5c4c3)cc2)CC1,4300
4,CN1CCN(c2ccc(-c3ccc4[nH]c5nccc(/C=C/c6cccc(F)c6)c5c4c3)cc2)CC1,2700
5,CN1CCN(c2ccc(-c3ccc4[nH]c5nccc(-c6cccc(-c7ccccc7)c6)c5c4c3)cc2)CC1,1800
6,CN1CCN(c2ccc(-c3ccc4[nH]c5nccc(C#Cc6ccccc6)c5c4c3)cc2)CC1,3700

# The remaining lines, values ahead:
row,IC50 [nM],Compound
1,> 25000,Cc1cc(OCc2ccc(-c3ccnc4[nH]c5ccc(-c6ccc(N7CCN(C)CC7)cc6)cc5c34)cc2)ccc1Cl
2,1500,CN1CCN(c2ccc(-c3ccc4[nH]c5nccc(/C=C/c6ccccc6C(F)(F)F)c5c4c3)cc2)CC1
3,800,COc1cc(-c2ccnc3[nH]c4ccc(-c5ccc(N6CCN(C)CC6)cc5)cc4c23)c(OC)cc1Cc1ccccc1
4,600,COc1ccc(/C=C/c2ccnc3[nH]c4ccc(-c5ccc(N6CCN(C)CC6)cc5)cc4c23)cc1
5,1200,CN1CCN(c2ccc(-c3ccc4[nH]c5nccc(N6CCC(Cc7ccccc7)CC6)c5c4c3)cc2)CC1
6,400,CN1CCN(c2ccc(-c3ccc4[nH]c5nccc(-c6ccc(-c7cccc8ccccc78)cc6)c5c4c3)cc2)CC1
